Measured values: patent US20140011799A1 (Bristol-Myers Squibb Company, priority 2012, published 2014)

Molecular target: T1, Endothelial lipase (EL) (Homo sapiens, UniProt Q9Y5X9)
T1 construct: HT-1080 cells that were transformed using RAGE technology (Athersys) to overexpress endogenous EL; endogenous in cells; conditioned medium used
T1 sequence (Q9Y5X9 21-500): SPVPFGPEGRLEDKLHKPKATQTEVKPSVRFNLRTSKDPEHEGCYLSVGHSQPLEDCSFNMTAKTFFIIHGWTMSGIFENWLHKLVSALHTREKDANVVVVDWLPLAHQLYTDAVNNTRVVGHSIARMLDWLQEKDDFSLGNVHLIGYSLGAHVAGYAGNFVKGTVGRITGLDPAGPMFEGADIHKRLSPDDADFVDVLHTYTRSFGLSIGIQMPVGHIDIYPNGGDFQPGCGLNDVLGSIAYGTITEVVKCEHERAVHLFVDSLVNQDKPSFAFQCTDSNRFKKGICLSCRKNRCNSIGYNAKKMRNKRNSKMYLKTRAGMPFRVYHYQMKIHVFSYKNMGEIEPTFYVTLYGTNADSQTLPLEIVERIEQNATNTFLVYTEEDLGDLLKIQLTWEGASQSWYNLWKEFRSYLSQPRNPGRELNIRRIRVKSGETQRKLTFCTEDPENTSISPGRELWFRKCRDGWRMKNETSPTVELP
Assay: Endothelial lipase (EL) enzymatic assay, fluorescent substrate A10070 in DMPG vesicles
Format: biochemical
Details: EL from conditioned media of HT-1080 cells; compound preincubated 30 min at 37° C; read-out: EL IC50
Procedure: Endothelial lipase (EL) and hepatic lipase (HL) activities were measured using a fluorescent substrate, A10070, (Invitrogen, CA) doped into an artificial vesicle containing DMPG (Avanti Polar Lipids) as the excipient. Vesicles were prepared by combining 571 μL of 29 mM DMPG in a 1:1 mixture of MeOH and CHCl3 with 2000 μL of 1 mM A10070 in a 1:1 mixture of MeOH and CHCl3. The mixture was dried under nitrogen in multiple vials then resuspended in 20 mL total volume of 50 mM HEPES pH 8.0 buffer containing 50 mM NaCl and 0.2 mM EDTA. The sample was allowed to sit at room temperature for 15 min and then was sonicated 3×4 mins on ice with a Branson Sonicator using duty cycle 1. This preparation provides vesicles with a mole fraction of 0.11 for the FRET substrate.
The enzymatic assay was measured using 384-well white Optiplates. Each well contained 20 μL of assay buffer (50 mM HEPES pH 8.0, 50 mM NaCl and 1 mM CaCl2) and 0.25 μL of a DMSO solution containing a compound of interest. EL or HL (10 μL) was added and allowed to incubate with the compound for 30 min at 37° C. The source of EL was conditioned media obtained from HT-1080 cells that were transformed using RAGE technology (Athersys) to overexpress endogenous EL, and HL was partially purified from conditioned media obtained from COS cells overexpressing HL. The reaction was started by the addition of 10 μL of a 1:10 dilution of vesicles. The final total reaction volume was […]. The reaction rates were measured on a Gemini plate reader with an excitation wavelength of 490 nm and an emission wavelength of 530 nm. Readings were taken over a period of 60 minutes, and the slope between 300 and 900 secs of the readout was used to calculate the rate of the reaction.

| Structure (SMILES) | IC50 [nM] |
| --- | --- |
| CN(C)C(=O)Cc1nnc(C(c2nc3ccc(-c4ccccc4)cc3s2)S(=O)(=O)Cc2ccccc2)o1 (centres unmarked) [Example 39, 2-(5-((benzylsulfonyl)(6-phenylbenzo[d]thiazol-2-yl)methyl)-1,3,4-oxadiazol-2-yl)-N,N-dimethylacetamide] | 190 |
| COc1nc(-c2nnc(C(c3nc4ccc(-c5ccccc5)cc4s3)S(=O)(=O)CCC(F)(F)F)o2)c(O)c(=O)[nH]1 (centres unmarked) [Example 44, 5-Hydroxy-2-methoxy-6-(5-((6-phenylbenzo[d]thiazol-2-yl)((3,3,3-trifluoropropyl)sulfonyl)methyl)-1,3,4-oxadiazol-2-yl)pyrimidin-4(3H)-one] | 77 |
| NS(=O)(=O)NCc1nnc(C(c2nc3ccc(-c4ccccc4)cc3s2)S(=O)(=O)Cc2ccccc2)o1 (centres unmarked) [Example 47, N-((5-((benzylsulfonyl) (6-phenyl-1,3-benzothiazol-2-yl)methyl)-1,3,4-oxadiazol-2-yl)methyl)sulfamide] | < 10 |
| NS(=O)(=O)NCc1nnc(C(c2nc3ccc(-c4ccccc4)cc3s2)S(=O)(=O)CCC(F)(F)F)o1 (centres unmarked) [Example 50, N-[(5-{(6-phenyl-1,3-benzothiazol-2-yl) [(3,3,3-trifluoropropyl)sulfonyl]methyl}-1,3,4-oxadiazol-2-yl)methyl]sulfuric diamide] | < 10 |
| NS(=O)(=O)NCc1nnc(C(c2nc3ccc(-c4ccccc4)cc3s2)S(=O)(=O)CCN2C(=O)c3ccccc3C2=O)o1 (centres unmarked) [Example 52, N-[(5-{(6-phenyl-1,3-benzothiazol-2-yl) ([2-(1,3-dioxo-1,3-dihydro-2H-isoindol-2-yl)ethyl]sulfonyl)methyl}-1,3,4-oxadiazol-2-yl)methyl]sulfuric diamide] | < 10 |
| NS(=O)(=O)NCc1nnc(C(c2nc3ccc(-c4ccccc4)cc3s2)S(=O)(=O)Cc2cccc(F)c2)o1 (centres unmarked) [Example 56, N-((5-(((3-fluorobenzyl)sulfonyl)(6-phenyl-1,3-benzothiazol-2-yl)methyl)-1,3,4-oxadiazol-2-yl)methyl)sulfamide] | < 10 |
| NS(=O)(=O)NCc1nnc(C(c2nc3ccc(-c4ccccc4)cc3s2)S(=O)(=O)Cc2cccc(Br)c2)o1 (centres unmarked) [Example 57] | < 10 |
| NS(=O)(=O)NCc1nnc(C(c2nc3ccc(-c4ccccc4)cc3s2)S(=O)(=O)Cc2ccc(Cl)cc2)o1 (centres unmarked) [Example 58, N-((5-(((4-chlorobenzyl)sulfonyl)(6-phenyl-1,3-benzothiazol-2-yl)methyl)-1,3,4-oxadiazol-2-yl)methyl)sulfamide] | < 10 |
| NS(=O)(=O)NCc1nnc(C(c2nc3ccc(-c4ccccc4)cc3s2)S(=O)(=O)Cc2cc(Cl)cc(Cl)c2)o1 (centres unmarked) [Example 59, N-((5-(((3,5-dichlorobenzyl)sulfonyl)(6-phenyl-1,3-benzothiazol-2-yl)methyl)-1,3,4-oxadiazol-2-yl)methyl)sulfamide] | < 10 |
| NS(=O)(=O)NCc1nnc(C(c2nc3ccc(-c4ccccc4)cc3s2)S(=O)(=O)Cc2ccc(Cl)c(Cl)c2)o1 (centres unmarked) [Example 60, N-((5-(((3,4-chlorobenzyl)sulfonyl)(6-phenyl-1,3-benzothiazol-2-yl)methyl)-1,3,4-oxadiazol-2-yl)methyl)sulfamide] | < 10 |

More lines, now with the values ahead:

| IC50 [nM] | Structure (SMILES) |
| --- | --- |
| < 10 | CC(C)(C)OC(=O)N1CC(S(=O)(=O)C(c2nnc(CS(N)(=O)=O)o2)c2nc3ccc(-c4ccccc4)cc3s2)C1 (centres unmarked) [Example 38, tert-butyl 3-(((6-phenylbenzo[d]thiazol-2-yl)(5-(sulfamoylmethyl)-1,3,4-oxadiazol-2-yl)methyl)sulfonyl)azetidine-1-carboxylate] |
| < 10 | N#CC1(NC(=O)Cc2nnc(C(c3nc4ccc(-c5ccccc5)cc4s3)S(=O)(=O)Cc3ccccc3)o2)CC1 (centres unmarked) [Example 40, 2-(5-((benzylsulfonyl)(6-phenylbenzo[d]thiazol-2-yl)methyl)-1,3,4-oxadiazol-2-yl)-N-(1-cyanocyclopropyl)acetamide] |
| 58 | CN(C)C(=O)CCc1nnc(C(c2nc3ccc(-c4ccccc4)cc3s2)S(=O)(=O)Cc2ccccc2)o1 (centres unmarked) [Example 41, 3-(5-((benzylsulfonyl)(6-phenylbenzo[d]thiazol-2-yl)methyl)-1,3,4-oxadiazol-2-yl)-N,N-dimethylpropanamide] |
| < 10 | C[C@]1(Cc2nnc(C(c3nc4ccc(-c5ccccc5)cc4s3)S(C)(=O)=O)o2)OC(=O)NC1=O (stereo partly drawn) [Example 42, (5R)-5-Methyl-5-((5-((methylsulfonyl)(6-phenylbenzo[d]thiazol-2-yl)methyl)-1,3,4-oxadiazol-2-yl)methyl)oxazolidine-2,4-dione] |
| 14 | COc1nc(-c2nnc(C(c3nc4ccc(-c5ccc(F)cc5)cc4s3)S(C)(=O)=O)o2)c(O)c(=O)[nH]1 (centres unmarked) [Example 43, 6-(5-((6-(4-Fluorophenyl)benzo[d]thiazol-2-yl)(methylsulfonyl)methyl)-1,3,4-oxadiazol-2-yl)-5-hydroxy-2-methoxypyrimidin-4(3H)-one] |
| < 10 | CS(=O)(=O)C(c1nnc(C[C@@H]2NS(=O)(=O)NC2=O)o1)c1nc2ccc(-c3ccccc3)cc2s1 (stereo partly drawn) [Example 45, (4S)-4-((5-((Methylsulfonyl)(6-phenylbenzo[d]thiazol-2-yl)methyl)-1,3,4-oxadiazol-2-yl)methyl)-1,2,5-thiadiazolidin-3-one 1,1-dioxide] |
| < 10 | CS(=O)(=O)C(c1nnc(CNS(N)(=O)=O)o1)c1nc2ccc(-c3ccccc3)cc2s1 (centres unmarked) [Example 46, N-({5-[(M ethylsulfonyl)(6-phenyl-1,3-benzothiazol-2-yl)methyl]-1,3,4-oxadiazol-2-yl}methyl)sulfuric diamide] |
| < 10 | NS(=O)(=O)NCc1nnc(C(c2nc3ccc(-c4ccccc4)cc3s2)S(=O)(=O)Cc2ccc(C(F)(F)F)cc2)o1 (centres unmarked) [Example 48, N-((5-((6-phenyl-1,3-benzothiazol-2-yl)((4-(trifluoromethyl)benzyl)sulfonyl)methyl)-1,3,4-oxadiazol-2-yl)methyl)sulfamide] |
| < 10 | CC(C)S(=O)(=O)C(c1nnc(CNS(N)(=O)=O)o1)c1nc2ccc(-c3ccccc3)cc2s1 (centres unmarked) [Example 49] |
| < 10 | NS(=O)(=O)NCc1nnc(C(c2nc3ccc(-c4ccccc4)cc3s2)S(=O)(=O)Cc2ccccc2F)o1 (centres unmarked) [Example 51, N-((5-(((2-fluorobenzyl)sulfonyl)(6-phenyl-1,3-benzothiazol-2-yl)methyl)-1,3,4-oxadiazol-2-yl)methyl)sulfamide] |
| < 10 | NS(=O)(=O)NCc1nnc(C(c2nc3ccc(-c4ccccc4)cc3s2)S(=O)(=O)C2CCOCC2)o1 (centres unmarked) [Example 53, N-({5-[6-phenyl-1,3-benzothiazol-2-yl (tetrahydro-2H-pyran-4-ylsulfonyl)methyl]-1,3,4-oxadiazol-2-yl}methyl) sulfuric diamide] |
| ~10 | NS(=O)(=O)NCc1nnc(C(c2nc3ccc(-c4ccccc4)cc3s2)S(=O)(=O)CCCc2ccccc2)o1 (centres unmarked) [Example 54, N-((5-((6-phenyl-1,3-benzothiazol-2-yl) ((3-phenylpropyl)sulfonyl)methyl)-1,3,4-oxadiazol-2-yl)methyl) sulfamide] |
| < 10 | COc1ccc(OCCCS(=O)(=O)C(c2nnc(CNS(N)(=O)=O)o2)c2nc3ccc(-c4ccccc4)cc3s2)cc1 (centres unmarked) [Example 55, N-((5-(((3-(4-methoxyphenoxy)propyl)sulfonyl) (6-phenyl-1,3-benzothiazol-2-yl)methyl)-1,3,4-oxadiazol-2-yl)methyl)sulfamide] |
